According to patent publication US7169785B2, “Methods and compositions of novel triazine compounds” (Reddy US Therapeutics, Inc., priority 2001, dated 2007):
Read-outs that look alike come from different tables or passages of the source.

Columns and labels:
IL6 = experiment: Inflammation Data of Table 8: IL6 production compared to cells that did not receive compound (stimulus AGE or TNF not given); format: cell-based; details: for Inflammation Data (result in words): concentration not given
From the text: Additional bioactivity data for compounds of the present invention are presented in Table 8, where compounds that have at least the activity of effecting cellular proliferation or at least the activity of modulating inflammation activity, as measured by the assays taught herein, are provided. […] The inclusion of compounds in the categories of the Tables disclosed herein, including this Table, is not to be seen as limiting, in that compounds included in such Tables have at least the activity shown for inclusion in the Table and may have more or other activities. Nor are the Tables to be seen as limiting in that these are the only compounds disclosed herein that have that activity, representative compounds are shown in the Tables that have at least that particular activity for inclusion in the Table. One or more compounds disclosed herein have at least an activity that has utility in treatment of disease states. Note that any hydrogen atoms that are required for any atom to attain its usual valence in a structure presented in Table 8, whether a carbon atom or a heteroatom, should be inferred if it is not specifically indicated.

[1] = system: Human aortic smooth muscle cells; experiment: Smooth muscle cell proliferation assay (anti-proliferation assay, perlecan); format: cell-based
Procedure: Human aortic smooth muscle cells (Clonetics) were used. Cells were grown in basal medium containing 5% fetal bovine serum supplemented with growth factors, basic fibroblast growth factor, epidermal growth factor and insulin. […] The cells were then serum starved for 24 h to induce quiescence. Fresh growth medium containing no compound or 10 μM compound was then added and further incubated for 24 h. Cell number was determined by using a cell proliferation assay kit (Celltiter96 AQueous from Promega).

cells = experiment: Cytotoxicity / lactate dehydrogenase assay and visual observation of cells; format: cell-based
Procedure: Assays for determining the activity of compounds capable of cytotoxic activity include those taught in herein and others that are well known in the art. In general, to determine if there is cytotoxic activity associated with a compound, cells of a particular type, in a growing stage or a quiescient stage, are treated with the compound of interest. Various parameters of cell death or cessation are used to measure the effects of the compound. For example, the amount of nucleic acid or protein synthesis can be measured or visual observation of the state of the cells, such as release from the substrate, can be used to measure the state of the cells.
An appropriate number of cells are plated in four 96-well plates, one plate for “day 0” and three plates for days 1–3. Cells are treated with at least one compound of the present invention in varying concentrations with and without the apoptosis inducer cisplatin (2 μM) (“+cis” or “−cis”). Unteated cells are also assayed with and without cisplatin. After transfection, the plates are incubated at 37° C. overnight.
An appropriate number of cells are plated in four 96-well plates, one plate for “day 0” and three plates for days 1–3. Cells are treated with at least one compound of the present invention in varying concentrations. The negative control cells have normal media conditions, a duplicate set of wells is treated with the composition in which the compound is provided, but there is no added compound and the positive control cells are treated with the apoptosis inducer cisplatin (2 μM). All of the cells are transfected with a vector having a promoter that is responsive to apoptosis conditions. When apoptosis occurs, the promoter is turned on and the lactic dehydrogenase gene is activated and the enzyme protein is made and active. Activity is easily detected with a color change. After transfection, the plates are incubated at 37° C. overnight.
About 8 mls of warmed alpha MEM LDH lysis buffer (2% Triton X100) and about 8 mls of culture media (½ dilution) are combined. Two 96-well v-bottom plates are prepared, one labeled “lysis” and one labeled “supernatant.” To lyse the cells, about 200 μl Alpha MEM lysis buffer (diluted ½) is added to one test plate from which the supernatant has been removed and added to the plate labeled supernatant. After mixing, about 200 μl of lysed cells are transferred to the lysis plate. Both the lysis and supernatant plates are centrifuged at about 1600 rpm for about 10 min. After centrifugation, about 100 μl of both the supernatant or lysate is transferred to corresponding 96-well flat-bottomed plates.
The assay for cytotoxicity uses the Cytotoxicity Detection Kit (LDH) from Roche Diagnostics Corp. (Indianapolis, Ind.). Using the directionts provided, the dye solution is mixed and added each well of the lysate and supernatant plate and incubated for up to 20–25 min at 15–25° C. in the dark.

IL-6 [2] = experiment: AGE (G-HSA)-induced inflammatory response determined by IL-6 ELISA in HAEC; format: cell-based, human; details: Homo sapiens; for activity at 10 µM: 24 h, Compds tested @ 10 uM, IL6, read-out: % IL6 production compare to AGE stimulation of IL6 (100%)
Outline: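 Human aortic endothelial cells grown to ≥90% confluence, then treated with compounds and stimuli in serum-free medium with 0.2% albumin. Secreted IL-6 in collected media measured by sandwich ELISA (2 ug/ml capture, 200 ng/ml biotinylated detection antibody, streptavidin-HRP), read at 450 nm.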

IL-6 [3] = experiment: TNF-α-induced IL-6 production determined by IL-6 ELISA in HAEC; format: cell-based, human; details: Homo sapiens, 24 h; Compds tested @ 10 uM; HAEC, IL6; read-out: % IL6 production compare to TNF stimulation of IL6 (100%)

| SMILES | Proliferation Data (result in words) ([1]; concentration not given) | inhibition at 10 µM (IL6; at 10 uM) [%] | further results |
| --- | --- | --- | --- |
| COc1ccc(Nc2nc(NC3CCCCCC3)nc(OCCOc3ccccc3F)n2)cc1Cl | Not active | – | Inflammation Data (result in words) (IL6): Not active |
| COc1ccc(Nc2nc(NC3CCCCCC3)nc(OCc3cccc(C)n3)n2)cc1Cl | Not active | 60 | – |
| Oc1ccc(Nc2nc(Cl)nc(Cl)n2)cc1Cl | Not active | 35 | – |
| Oc1ccc(Nc2nc(Cl)nc(NC3CCCCCC3)n2)cc1Cl | Not active | 25 | inhibition at 5 µM (IL6; at 5 uM): 25% |
| COc1ccc(Nc2nc(Cl)nc(NC3CC3)n2)cc1F | Not active | 36 | – |
| COc1ccc(Nc2nc(NC3CC3)nc(N(C)C3CCN(C)CC3)n2)cc1F | Not active | 25 | – |
| CCN1CCCC1CNc1nc(Nc2ccc(OC)c(F)c2)nc(NC2CC2)n1 (stereo not drawn) | Not active | 23 | – |
| COc1ccc(Nc2nc(Cl)nc(Nc3ccc(OC)c(F)c3)n2)cc1F | Not active | 20 | Inflammation Data, inhibition (IL6; at 5 uM): noeffect |
| CCN1CCCC1CNc1nc(Nc2ccc(OC)c(F)c2)nc(Nc2ccc(OC)c(F)c2)n1 (stereo not drawn) | – | 35 | inhibition at 5 µM (IL6; at 5 uM): 25% |
| CCN1CCCC1CNc1nc(Nc2cnc3ccccc3c2)nc(NC2CCCCCC2)n1 (stereo not drawn) [Compound 3, N^2-cycloheptyl-N^4-[(1-ethyl-2-pyrrolidinyl)methyl]-N^6-(3-quinolinyl)-1,3,5-triazine-2,4,6-triamine] | – | – | Toxicity (cells; toxic or cause cell death): toxic; activity at 10 µM (IL-6 [2]): 1% |
| CCN1CCCC1CNc1nc(Nc2ccc(OC)c(F)c2)nc(N2CCCC3CCCCC32)n1 (stereo not drawn) [Compound 59, N^2-[(1-ethyl-2-pyrrolidinyl)methyl]-N^4-(3-fluoro-4-methoxyphenyl)-N^6-octahydro-1(2H)-quinolinyl-1,3,5-triazine-2,4-diamine] | – | – | Toxicity (cells; toxic or cause cell death): toxic |
| COc1ccc(Nc2nc(NCCN(C)C)nc(NC3CCCCCC3)n2)cc1F [Compound 93, N^2-cycloheptyl-N^4-[2-(dimethylamino)ethyl]-N^6-(3-fluoro-4-methoxyphenyl)-1,3,5-triazine-2,4,6-triamine] | – | – | activity at 10 µM (IL-6 [3]): 13%; Toxicity (cells; toxic or cause cell death): toxic; activity at 10 µM (IL-6 [2]): 6%; IC50 (IL-6 [2]; IL6, unit inferred, read-out: IC50 (AGE stimulation of IL6)): 3.36 µM |
| COc1ccc(Nc2nc(OCC3CCCCC3)nc(N(C)C3CCN(C)CC3)n2)cc1Cl [Compound 119, N-(3-Chloro-4-methoxy-phenyl)-6-cyclohexylmethoxy-N′-methyl-N′-(1-methyl-piperidin-4-yl)-[1,3,5]triazine-2,4-diamine] | – | – | Toxicity (cells): toxic |
| CCN1CCCC1CNc1nc(Nc2ccc(OC)c(Cl)c2)nc(NC2CCCCCC2)n1 (stereo not drawn) [Compound 136, N^2-(3-chloro-4-methoxy-phenyl)-N^4-cycloheptyl-N^6-(1-ethyl-pyrrolidin-2-ylmethyl)-1,3,5-triazine-2,4,6-triamine] | – | – | Toxicity (cells; at 3 uM, very toxic): Nothing but celldebris at 3 uM verytoxic |
| COc1ccc(Nc2nc(NC3CCCCCC3)nc(OC3CCCN(C(C)=O)C3)n2)cc1Cl (stereo not drawn) [drawing 992] | – | – | Inflammation Data, inhibition (IL6; at 10 uM): complete inhibition at 10 uM; Proliferation Data (result in words) ([1]; 5 & 10 uM screens): Not active at 5 & 10 uM |
| COc1ccc(Nc2nc(NC3CCCCCC3)nc(OC(C)C)n2)cc1Cl [drawing 993] | Not active | < 25 | – |
| COc1ccc(Nc2nc(NC3CCCCCC3)nc(OCC3CCCN3)n2)cc1Cl (stereo not drawn) [drawing 994] | – | 75 | Proliferation Data (result in words) ([1]; 5 & 10 uM screens): Not active at 5 & 10 uM |
| COc1ccc(Nc2nc(NC3CCCCCC3)nc(N3CCSCC3)n2)cc1Cl [drawing 999] | Not active | – | Inflammation Data (result in words) (IL6): Not Active |
| COc1ccc(Nc2nc(NC3CCCCCC3)nc(Oc3ccccc3F)n2)cc1Cl [drawing 1000] | Not active | – | Inflammation Data (result in words) (IL6): Not Active |
